# Results from patent US4554275A, “Triazine derivatives” (Nippon Shinyaku Co., Ltd., priority 1982, dated 1985).
# Experiments:
# Carrageenin Edema = test: Carrageenin edema inhibitory action (rat hind paw swelling); type: in vivo, male rats (SLC-SD strain); details: po, 3 h, 400 mg/kg orally, one hour before 0.1 ml of 0.5% carrageenin into right hind paw, measured three hours later, vs control group, read-out: Carrageenin Edema Inhibitory Rate (%)
# Protocol: Five male rats (SLC-SD strain, five weeks age, supplied by Seidokyo) were used in one group in the experiment. Drugs to be tested were given orally at a dose of 400 mg/kg and, one hour later, 0.1 ml of 0.5% carrageenin was injected subcutaneously to right hind paw. Three hours later, volumes of the right hind paws were measured, volumes of the paws before the carrageenin injection were deducted therefrom, and the resulting volumes were defined as a degree of swelling.
# The inhibitory rates were calculated from mean degree of swelling of the drug-administered groups and the control group and the result is shown in Table 1.
# male mice = details: mouse, in vivo, po, 2000 mg/kg
Compound,inhibition in vivo at 400 mg/kg (Carrageenin Edema),Acute toxicity (male mice)
"Nc1nc(N)nc(-c2cc3ccccc3cc2OCc2ccccc2)n1 [Example 5, 2,4-diamino-6-(2-benzyloxy-3-naphthyl)-s-triazine]",30.4%,–
"COc1ccc(-c2nc(N)nc(N)n2)c2ccccc12 [Example 9, 2,4-diamino-6-(1-methoxy-4-naphthyl)-s-triazine]",52.4%,no toxicity was observed
"COc1ccc(-c2nc(N)nc(NC(=O)c3cccnc3)n2)c2ccccc12 [Example 2, 2-amino-4-nicotinoylamino-6-(1-methoxy-4-naphthyl)-s-triazine]",34.7%,no toxicity was observed
"Nc1nc(NC(=O)c2cccnc2)nc(-c2ccc(Br)c3ccccc23)n1 [Example 25, 2-amino-4-nicotinamidio-6-(1-bromo-4-naphthyl)-s-triazine]",25.1%,–
"Nc1nc(N)nc(-c2cc3ccccc3cc2Cl)n1 [Example 12, 2,4-diamino-6-(2-chloro-3-naphthyl)-s-triazine]",61.3%,no toxicity was observed
"Nc1nc(N)nc(-c2cc3ccccc3cc2Br)n1 [Example 13, 2,4-diamino-6-(2-bromo-3-naphthyl)-s-triazine]",49.1%,–
"Nc1nc(N)nc(-c2ccc(Cl)c3ccccc23)n1 [Example 14, 2,4-diamino-6-(1-chloro-4-naphthyl)-s-triazine]",42.6%,–
"Nc1nc(NC(=O)c2cccnc2)nc(-c2cc3ccccc3cc2Br)n1 [Example 27, 2-amino-4-nicotinamido-6-(2-bromo-3-naphthyl)-s-triazine]",33.5%,–
"COc1cc2ccccc2cc1-c1nc(N)nc(NC(=O)c2cccnc2)n1 [Example 19, 2-amino-4-nicotinamido-6-(2-methoxy-3-naphthyl)-s-triazine]",35%,–
"Nc1nc(N)nc(-c2ccc(OCc3ccccc3)c3ccccc23)n1 [Example 6, 2,4-diamino-6-(1-benzyloxy-4-naphthyl)-s-triazine]",30.9%,–
"Nc1nc(NC(=O)c2cccnc2)nc(-c2cc3ccccc3cc2F)n1 [Example 3, 2-amino-4-nicotinoylamino-6-(2-fluoro-3-naphthyl)-s-triazine]",56.5%,no toxicity was observed
"Nc1nc(NC(=O)c2cccnc2)nc(-c2ccc(Cl)c3ccccc23)n1 [Example 24, 2-amino-4-nicotinamido-6-(1-chloro-4-naphthyl)-s-triazine]",25%,no toxicity was observed
"Nc1nc(NC(=O)c2cccnc2)nc(-c2ccc3cc(OCc4ccccc4)ccc3c2)n1 [Example 23, 2-amino-4-nicotin-amido-6-(6-benzyloxy-2-naphthyl)-s-triazine]",28.1%,no toxicity was observed
"Nc1nc(N)nc(-c2ccc3cc(OCc4ccccc4)ccc3c2)n1 [Example 10, 2,4-diamino-6-(2-benzyloxy-6-naphthyl)-s-triazine]",50.3%,–
"Nc1nc(NC(=O)c2cccnc2)nc(-c2ccc3ccccc3c2)n1 [Example 18, 2-Amino-4-nicotinoylamino-6-beta-naphthyl-s-triazine]",24.8%,no toxicity was observed
"COc1ccc2cc(-c3nc(N)nc(N)n3)ccc2c1 [Example 16, 2,4-diamino-6-(2-methoxy-6-naphthyl)-s-triazine]",51.1%,–
"Nc1nc(N)nc(-c2cc3ccccc3cc2F)n1 [Example 11, 2,4-diamino-6-(2-fluoro-3-naphthyl)-s-triazine]",48.8%,–
"COc1ccc2ccccc2c1-c1nc(N)nc(N)n1 [Example 7, 2,4-diamino-6-(2-methoxy-1-naphthyl)-s-triazine]",44.6%,–
"Nc1nc(NC(=O)c2cccnc2)nc(-c2ccc3ccccc3c2O)n1 [Example 28, 2-amino-4-nicotinamido-6-(1-hydroxy-2-naphthyl)-s-triazine]",19.4%,no toxicity was observed
"COc1cc2ccccc2cc1-c1nc(N)nc(N)n1 [Example 1, 2,4-diamino-6-(2-methoxy-3-naphthyl)-s-triazine]",60.3%,no toxicity was observed
"Nc1nc(N)nc(-c2ccc(Br)c3ccccc23)n1 [Example 15, 2,4-diamino-6-(1-bromo-4-naphthyl)-s-triazine]",48.4%,–
